Test [1] has as its target T1, CRTH2 (Homo sapiens, UniProt Q9Y5Y4).
T1 construct: endogenous in cells; host or cells: eosinophils in human whole blood
T1 sequence (Q9Y5Y4 1-395): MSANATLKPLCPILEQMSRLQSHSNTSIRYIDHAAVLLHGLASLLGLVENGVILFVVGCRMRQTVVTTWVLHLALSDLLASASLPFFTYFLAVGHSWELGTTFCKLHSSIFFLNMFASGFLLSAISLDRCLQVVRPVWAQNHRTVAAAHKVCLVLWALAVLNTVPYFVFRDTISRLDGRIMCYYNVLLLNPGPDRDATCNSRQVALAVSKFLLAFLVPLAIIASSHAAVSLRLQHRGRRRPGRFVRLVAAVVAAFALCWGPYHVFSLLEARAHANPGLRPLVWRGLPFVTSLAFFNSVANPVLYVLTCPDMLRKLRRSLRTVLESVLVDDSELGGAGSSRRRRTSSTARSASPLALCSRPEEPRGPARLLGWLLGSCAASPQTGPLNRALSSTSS
In words: DPBS CD11b antagonist assay (CD11b expression in eosinophils challenged with 15R-Methyl-PGD2). It is filed as cell-based. The following applies: polymorphonuclear cells in PBS with CaCl2/MgCl2; agonist 15R-Methyl-PGD2 10 nM; eosinophils gated by flow cytometry. The procedure:
DPBS CD111b Antagonist Assay.
The potential CRTH2 antagonist, activity of certain compounds was tested using a CD11b expression assay using essentially the method described by Monneret et al. (J Pharmacol Exp Ther 304:349-55, 2003). Briefly, polymorphonuclear cells (0.5 ml; 10^6/ml cells) in PBS containing 0.9 mM CaCl2 and 0.5 mM MgCl2) were preincubated with various concentrations of test compounds at room temperature for 10 minutes before they were challenged with the agonist 15R-Methyl-PGD2 (10 nM). The incubations were terminated by the addition of ice-cold FACSFlow (BD Biosciences; Cat#342003) and centrifugation (400 g for 5 minutes at 4° C.). The cells were then incubated for 30 minutes at 4° C. with a mixture of PE-labeled mouse anti-human VLA-4 (5 μl; BD Biosciences) and FITC-labeled mouse anti-human CD11b (10 μl; Beckman Coulter). The cells were then incubated with Optilyse C (0.25 ml; Beckman Coulter) for 15 minutes, centrifuged, and then fixed in PBS (0.4 ml; calcium and magnesium free) containing 1% formaldehyde. The distribution of fluorescence intensities among 60,000 cells was measured by flow cytometry. Eosinophils were gated out on the basis of their granularity (high side scatter) and labeling with VLA-4 (PE fluorescence). CD11b was then measured in the eosinophil region on the basis of fluorescence due to FITC. All data were corrected for the value obtained for the corresponding isotope control antibody.
(In general: A flow cytometer gives signals particle by particle.)

The target in test [2] is T1, CRTH2. The test is described as follows: Human whole blood CD11b antagonist assay (CD11b expression in eosinophils challenged with 15-R-methyl-PGD2). Format: cell-based. The following applies: 37° C. 10 minutes preincubation, agonist 15R-Methyl-PGD2 10 nM, eosinophils gated by flow cytometry. The procedure: Human Whole Blood […] Antagonist Assay (Modified from Nicholson, et al. Pulmonary Pharmacology and Therapeutics: 20 (2007); 52-59).
The potential CRTH2 antagonist activity of certain compounds was tested in human whole blood using an assay that tests the ability of the compounds to block the CD11b expression in eosinophils by 15-R-methyl-PGD2. A CRTH2 antagonist should block CD11b expression by subsequently added 15-Methyl-PGD2. Human whole blood (200 μL) was incubated at 37° C. for 10 minutes in the presence of various concentrations of test compounds before being challenged with the agonist 1-5R-Methyl-PGD2 (10 nM). Reactions were terminated by the addition of ice-cold PBS+0.5% BSA+2 mM EDTA (1 mL) and centrifugation (300×g for 5 minutes at 4° C.) Cells were then incubated at 4° C. for 10 min in the presence of human IgG. Cells were then incubated for 30-45 min with a mixture of PE-Cy5-labeled mouse anti-human CD16 (10 ul; BD Biosciences) and FITC-labeled mouse anti-human CD11b (10 μL; Beckman Coulter.) After rinsing (1 mL ice-cold PBS+0.5% BSA+2 mM EDTA), red blood cells were lysed by the addition of 1 mL ice-cold H2O to the cell pellet for 30 sec-1 min immediately followed by the addition of 3.5% NaCl (300 μL.) Cells were then rinsed (2×−1 ml ice cold PBS+0.5% BSA+2m MEDTA) and fixed in PBS containing 1% formaldehyde. The distribution of fluorescence intensities was measured by flow cytometry. Eosinophils were gated out on the basis of their granularity (high side scatter) and absence of CD-16. CD11b was then measured on this eosinophil population on the basis of fluorescence due to FITC.

A word on the IC50: it is the concentration that gives 50% inhibition.

A value given as a limit tells only on which side of the number the result lay.

With `Cc1c(Cc2cccnc2S(=O)(=O)c2ccccc2C(F)(F)F)c2c(n1CC(=O)O)CC(C)(C)CC2=O` [Compound I-17, 2-(2,6,6-Trimethyl-4-oxo-3-((2-(2-(trifluoromethyl)phenylsulfonyl)pyridin-3-yl)methyl)-4,5,6,7-tetrahydro-1H-indol-1-yl)acetic acid], the IC50 is less than 1 nM at CRTH2 [1] and 5 to 20 nM on CRTH2 [2]. The corresponding values for `Cc1ccc(S(=O)(=O)Nc2ccccc2Cc2c3c(n(CC(=O)O)c2C)CC(C)(C)CC3=O)cc1` [Compound I-23, 2-(2,6,6-Trimethyl-3-(2-(4-methylphenylsulfonamido)benzyl)-4-oxo-4,5,6,7-tetrahydro-1H-indol-1-yl)acetic acid] are less than 1 nM and 1 to 5 nM. The corresponding values for `COc1cccc(S(=O)(=O)c2ncccc2Cc2c3c(n(CC(=O)O)c2C)CC(C)(C)CC3=O)c1` [Compound I-13, 2-(3-((2-(3-Methoxyphenylsulfonyl)pyridin-3-yl)methyl)-2,6,6-trimethyl-4-oxo-4,5,6,7-tetrahydro-1H-indol-1-yl)acetic acid] are 1 to 5 nM and 20 to 100 nM. The corresponding values for `Cc1c(Cc2ccccc2NS(=O)(=O)N2CCCC2)c2c(n1CC(=O)O)CC(C)(C)CC2=O` [Compound I-40, 2-(2,6,6-Trimethyl-4-oxo-3-(2-(pyrrolidine-1-sulfonamido)benzyl)-4,5,6,7-tetrahydro-1H-indol-1-yl)acetic acid] are 1 to 5 nM and 100 to 500 nM.

Turning to `Cc1c(Cc2ccccc2NS(=O)(=O)c2ccc(C(C)C)cc2)c2c(n1CC(=O)O)CC(C)(C)CC2=O` [Compound I-27, 2-(3-(2-(4-Isopropylphenylsulfonamido)benzyl)-2,6,6-trimethyl-4-oxo-4,5,6,7-tetrahydro-1H-indol-1-yl)acetic acid], the values for the IC50 on CRTH2 [1] and at CRTH2 [2] were less than 1 nM and 20 to 100 nM, respectively. The matching figures for `Cc1c(Cc2ccccc2NS(=O)(=O)N2CCCC2)c2c(n1CC(=O)O)CC(C)(C)CC2=O` [Compound I-44]: 1 to 5 nM and 100 to 500 nM. Take `Cc1c(Cc2cc3ccccc3n2S(=O)(=O)c2ccccc2)c2c(n1CC(=O)O)CCC(C)(C)C2` [Compound I-1, 2-(2,5,5-trimethyl-3-((1-(phenylsulfonyl)-1H-indol-2-yl)methyl)-4,5,6,7-tetrahydro-1H-indol-1-yl)acetic acid]: the IC50 at CRTH2 [1] is less than 1 nM. As to `Cc1c(Cc2ccc(S(=O)(=O)c3ccccc3)s2)c2c(n1CC(=O)O)CC(C)(C)CC2=O` [Compound I-26, 2-(2,6,6-Trimethyl-4-oxo-3-((5-(phenylsulfonyl)thiophen-2-yl)methyl)-4,5,6,7-tetrahydro-1H-indol-1-yl)acetic acid], the IC50 is 100 to 500 nM at CRTH2 [1] and more than 3000 nM on CRTH2 [2]. The corresponding values for `Cc1c(Cc2cccnc2S(=O)(=O)c2ccc(C(F)(F)F)cc2)c2c(n1CC(=O)O)CC(C)(C)CC2=O` [Compound I-12, 2-(2,6,6-Trimethyl-4-oxo-3-((2-(4-(trifluoromethyl)phenylsulfonyl)pyridin-3-yl)methyl)-4,5,6,7-tetrahydro-1H-indol-1-yl)acetic acid] are 100 to 500 nM and 500 to 3000 nM.

Take `Cc1c(Cc2ccccc2N(C)S(=O)(=O)N2CCCC2)c2c(n1CC(=O)O)CC(C)(C)CC2=O` [Compound I-43, 2-(2,6,6-Trimethyl-3-(2-(N-methylpyrrolidine-1-sulfonamido)benzyl)-4-oxo-4,5,6,7-tetrahydro-1H-indol-1-yl)acetic acid]: the IC50 on CRTH2 [1] was 5 to 20 nM; on CRTH2 [2], 20 to 100 nM.

For the molecule `Cc1c(Cc2cccnc2S(=O)(=O)c2ccc(F)cc2)c2c(n1CC(=O)O)CC(C)(C)CC2=O` [Compound I-5, 2-(3-((2-(4-fluorophenylsulfonyl)pyridin-3-yl)methyl)-2,6,6-trimethyl-4-oxo-4,5,6,7-tetrahydro-1H-indol-1-yl)acetic acid], the IC50 was less than 1 nM at CRTH2 [1] and 5 to 20 nM at CRTH2 [2]. Turning to `CCOC(=O)N1CCN(S(=O)(=O)c2ccc(Cc3c4c(n(CC(=O)O)c3C)CCOC4)cc2)CC1` [Compound I-2, 2-(3-(4-(4-(Ethoxycarbonyl)piperazin-1-ylsulfonyl)benzyl)-2-methyl-6,7-dihydropyrano[4,3-b]pyrrol-1(4H)-yl)acetic acid], the IC50 on CRTH2 [1] fell in the range of 1 to 5 nM; at CRTH2 [2], 100 to 500 nM. The matching figures for `Cc1c(Cc2ccccc2N(C)S(=O)(=O)c2ccc(C(C)C)cc2)c2c(n1CC(=O)O)CC(C)(C)CC2=O` [Compound I-34, 2-(3-(2-(4-Isopropyl-N-methylphenylsulfonamido)benzyl)-2,6,6-trimethyl-4-oxo-4,5,6,7-tetrahydro-1H-indol-1-yl)acetic acid]: 5 to 20 nM and 500 to 3000 nM. Consider `CCN(c1ccccc1Cc1c2c(n(CC(=O)O)c1C)CC(C)(C)CC2=O)S(=O)(=O)c1ccc(C)cc1` [Compound I-38, 2-(3-(2-(N-Ethyl-4-methylphenylsulfonamido)benzyl)-2,6,6-trimethyl-4-oxo-4,5,6,7-tetrahydro-1H-indol-1-yl)acetic acid], for which the results for the IC50 on CRTH2 [1] and on CRTH2 [2] were 1 to 5 nM and 500 to 3000 nM, respectively. The matching figures for `Cc1c(Cc2cc3ccccc3n2S(=O)(=O)N2CCOCC2)c2c(n1CC(=O)O)CC(C)(C)CC2=O` [Compound I-37]: less than 1 nM and 20 to 100 nM. The matching figures for `Cc1c(Cc2cccnc2S(C)(=O)=O)c2c(n1CC(=O)O)CC(C)(C)CC2=O` [Compound I-32, 2-(2,6,6-Trimethyl-3-((2-(methylsulfonyl)pyridin-3-yl)methyl)-4-oxo-4,5,6,7-tetrahydro-1H-indol-1-yl)acetic acid]: 500 to 3000 nM and 500 to 3000 nM. As for `Cc1c(Cc2cccnc2S(=O)(=O)c2ccc(F)cc2F)c2c(n1CC(=O)O)CC(C)(C)CC2=O` [Compound I-19, 2-(3-((2-(2,4-Difluorophenylsulfonyl)pyridin-3-yl)methyl)-2,6,6-trimethyl-4-oxo-4,5,6,7-tetrahydro-1H-indol-1-yl)acetic acid], the IC50 on CRTH2 [1] lay in the range of 1 to 5 nM; at CRTH2 [2], 20 to 100 nM. The corresponding values for `Cc1c(Cc2sccc2S(=O)(=O)c2ccccc2)c2c(n1CC(=O)O)CC(C)(C)CC2=O` [Compound I-42] are less than 1 nM and less than 1 nM. The corresponding values for `Cc1c(Cc2ccccc2S(=O)(=O)N2CCCC2)c2c(n1CC(=O)O)CC(C)(C)C/C2=N\OCc1ccccc1` [Compound I-31, (E)-2-(4-(Benzyloxyimino)-2,6,6-trimethyl-3-(2-(pyrrolidin-1-ylsulfonyl)benzyl)-4,5,6,7-tetrahydro-1H-indol-1-yl)acetic acid] are 1 to 5 nM and 100 to 500 nM.

As for `CCOC(=O)Cn1c(C)c(Cc2cccnc2S(=O)(=O)c2ccc(C(F)(F)F)cc2)c2c1CC(C)(C)CC2=O` [Compound I-10, Ethyl 2-(2,6,6-trimethyl-4-oxo-3-((2-(4-(trifluoromethyl)phenylsulfonyl)pyridin-3-yl)methyl)-4,5,6,7-tetrahydro-1H-indol-1-yl)acetate], the results for the IC50 at CRTH2 [1] and at CRTH2 [2] were 1 to 5 nM and 100 to 500 nM, respectively. In the case of `Cc1c(Sc2ccccc2N(C)S(=O)(=O)c2ccccc2)c2c(n1CC(=O)O)CC(C)(C)CC2` [Compound I-53, 2-(2,6,6-trimethyl-3-(2-(N-methylphenylsulfonamido)phenylthio)-4,5,6,7-tetrahydro-1H-indol-1-yl)acetic acid], the IC50 at CRTH2 [2] was in the range of 500 to 3000 nM.

The record behind these values is patent US20130259830A1, “CRTH2 MODULATORS” (Ironwood Pharmaceuticals, Inc., priority 2010, published 2013).
